Measured values reported in patent publication US20240316043A1, “BROMODOMAIN INHIBITORS FOR CANCER THERAPY” (University of Tennessee Research Foundation, priority 2023, published 2024).
Entries after “also recorded” stand apart in the source; their conditions may differ.

How the values were obtained:
MT330 GBM cells = assay: Cell death ELISA in MT330 GBM cells; type: cell-based; conditions: for enhancement of TMZ-induced cell death: 10 mM inhibitor in combination with 200 mM of TMZ
Method: Control cells were treated with vehicle (DMSO). Cell death was determined at 72 hr after treatment by a cell death ELISA that quantifies histone-complexed DNA fragments. […]
Parental and BRG1 knockout MT330 cells were treated with bleomycin (0.01 μM) and bromodomain inhibitors […]. After 72 hr, cell death was determined by cell death ELISA.
The biological activity of bromodomain inhibitors was assessed for the ability to enhance TMZ-induced cell death. In brief, MT330 cells were treated with […] of bromodomain inhibitors alone, or in combination with […] of TMZ for 72 hrs, and GBM cell death was determined by a commercial ELISA.

MT330 cells = assay: γH2Ax immunostaining after bleomycin; type: cell-based; conditions: FIG. 8
Method: After 1 hr of bleomycin treatment cell death, cells were fixed and immunostained for γH2Ax. Analysis of immunostaining was performed on at least 1,000 cells on the Lionheart FX imaging system.
Bleomycin is a chemotherapeutic drug that is used to treat various cancers. […] Thus, the ability of bleomycin to induce DNA damage as evidence by immunostaining of MT330 cells and LN229 with γH2Ax was tested. Quantification of cell staining was determined on the Lionheart FX imaging station.

LN229 GBM cells = assay: γH2Ax immunostaining after TMZ; type: cell-based; parameters: dose or concentration left out as unconfirmed; conditions: 24 hrs, FIG. 11
Method: After treatment for 24 hrs, cells were fixed and immunostained for gH2Ax. Analysis of immunostaining was performed on a laser confocal microscope.
As TMZ is DNA damaging agent, we tested the ability of various bromodomain inhibitors to enhance TMZ-induced DNA damage as evidence by immunostaining of GBM cells with γH2Ax and examination of the staining on a confocal microscope. γH2AX is the phosphorylated version of the histone variant H2Ax and is a highly specific and sensitive marker for monitoring DNA damage initiation and resolution. […] Similar results were obtained with MT330 GBM cells.

BRG1/BRM = conditions: cited from earlier work
[1] = system: 12 primary human cell based systems; conditions: cited from earlier work
[2] = system: TMZ-sensitive GBM cells and TMZ-resistant GBM cells; conditions: cited from earlier work
GBM tumors = conditions: intracranial GBM animal model; cited from earlier work
T98G GBM cells [3] = assay: IncuCyte live cell imaging proliferation assay; type: cell-based; conditions: TMZ (500 μM) plus bromodomain inhibitors (20 μM), FIG. 2
Method: T98G GBM cells were treated with TMZ (500 μM), the bromodomain inhibitors (20 μM), and cell proliferation was determined by Incucyte live cell assays using cellular confluence method. The data was normalized to the calculated cell confluence at day 0. Control cells were treated with vehicle (DMSO).
To further characterize the biological activity of selected bromodomain inhibitors, YH-IV-129, YH-IV-181 and YH-IV-191, IncuCyte live cell imaging proliferation assays were performed with the highly TMZ-resistant T98G GBM cell line.

BRG1 bromodomain = biological target: T1, BRG1 bromodomain (Homo sapiens, UniProt P51532); assay: Cellular thermal shift assay (CETSA), BRG1 bromodomain construct in MT330 cells; type: binding; conditions: FIG. 3
T1 construct: expressed in transfected cells; host or cells: MT330 glioblastoma cells
Method: After heating over a temperature range from 44.5° C. to 55.6° C. for 5 min, the cells were lysed, placed on ice at 4° C. and then immunoblotted for BRG1 or actin.
(§1) For the CETSA, MT330 cells expressing the BRM (FIG. 6B), or BRG1 (FIG. 6C) the BRD construct were treated with bromodomain inhibitors […] and immunoblotted as indicated.
(§2) After heating over a temperature range from 44.5° C. to 55.6° C. for 5 min, MT330 cells were lysed and then immunoblotted for BRG1 or BRM.

BRM bromodomain = biological target: T2, BRM bromodomain (Homo sapiens, UniProt P51531); assay: Cellular thermal shift assay (CETSA), BRM bromodomain construct in MT330 cells; type: binding; conditions: FIG. 3
T2 construct: expressed in transfected cells; host or cells: MT330 glioblastoma cells
Method: as §1, §2

U87 GBM cells = assay: Cell death ELISA in TMZ-resistant U87 cells; type: cell-based; conditions: U87, TMZ (500 μM) and inhibitor (10 μM), 72 hr, FIG. 4
Method: (§3) After 72 hr, cell death was determined by a commercial cell death ELISA.
(§4) To further test the bioactivity of bromodomain inhibitors, T98G and U87 GBM cell lines were used that are highly resistant to the death inducing activity of TMZ. […] Because of their high TMZ resistance, these cells may serve as cell models for TMZ resistant GBM cancer stem-like cells.

T98G GBM cells [4] = assay: Cell death ELISA in TMZ-resistant T98G cells; type: cell-based; conditions: TMZ (500 μM) and inhibitor (10 μM), 72 hr
Method: as §3, §4

[5] = system: intracranial GBM xenografts (MT330 cells); assay: Orthotopic GBM model, MT330 cells injected into brains of NSG mice; type: in vivo
Method: MT330 cells (10^6) were injected into the brains of NSG female mice. After tumors were identified by BLI (˜10 days post-injection), mice were IP injected with TMZ (60 mg/Kg body weight) or IV-129 (10 mg/Kg) alone or in combination 3 times per week (5 mice per group) for 2 weeks. […] FIG. 5C Kaplan-Meier analysis of the survival data (5 mice/group) of the brain tumor-bearing mice was performed.
MT330 cells […] were injected into the brains of NSG female mice. After tumors were identified by BLI (˜10 days post-injection), mice were IP injected with TMZ (10 mg/Kg body weight), IV-255 or IV-275 (20 mg/Kg) alone or in combination 3 times per week (5 mice/group).
Luciferase-expressing MT330 cells were injected into the brains of immunocompromised NSG mice. Once tumors were identified by bioluminescence imaging (BLI) at ˜10 days after tumor cell injection, mice were subjected to intraperitoneal injection of TMZ or YH-IV-129 alone, or in combination. At 20 days after initiation of treatment, live animal imaging was performed on an IVIS Lumina instrument. […] The mean survival of control mice was 27 days after cell injection (FIG. 5C).
Luciferase-expressing MT330 cells were injected into the brains of immunocompromised NSG mice. Once tumors were identified by bioluminescence imaging (BLI) at ˜10 days after tumor cell injection, mice were subjected to intraperitoneal injection of TMZ or YH-IV-255 or YH-IV-275 alone, or in combination. […] This is compelling preliminary evidence that these two new compounds have potent anticancer activity in intracranial GBM xenografts when combined with standard-of-care TMZ chemotherapy and that these drugs cross the blood-brain barrier.

[6] = Tolerability in mice not injected with tumor cells; type: in vivo; conditions: at the drug doses used
[7] = vehicle control band disappearing at 49.8° C.

T2 sequence (P51531 1378-1506 limits assumed): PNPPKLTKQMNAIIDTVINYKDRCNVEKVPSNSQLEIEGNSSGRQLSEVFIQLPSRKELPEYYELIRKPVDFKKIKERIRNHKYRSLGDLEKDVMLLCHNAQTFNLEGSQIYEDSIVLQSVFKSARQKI
T1 sequence (P51532 1453-1564 limits assumed): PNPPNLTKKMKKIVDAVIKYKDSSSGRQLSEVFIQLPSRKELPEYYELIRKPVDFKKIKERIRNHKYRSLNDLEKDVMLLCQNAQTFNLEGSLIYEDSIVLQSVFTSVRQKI

In the case of `O=C(/C=C/N1C[C@H]2C[C@@H]1CN2c1ccccn1)c1ccccc1O` [PFI-3], the “enhancement of TMZ-induced cell death” value (MT330 GBM cells; 72 hrs, FIG. 1) is reported as “markedly increased the sensitivity of GBM cells to TMZ-induced cell death”, the “cell death, inhibitor alone” value (MT330 GBM cells; 10 mM of bromodomain inhibitors alone, 72 hrs, FIG. 1) is reported as “did not induce cell death” and the “γH2Ax staining, PFI-3 alone” value (MT330 cells; PFI-3 (5 μM) alone) is reported as “no effect on γH2Ax staining”. The “γH2Ax staining, PFI-3 pretreatment followed by bleomycin” value (MT330 cells; pretreated for 1 hr with PFI-3 (5 μM) followed by bleomycin (0.5 and 2 μM)) was “increased number of both γH2Ax positive cells and signal intensity of staining; also recorded: sensitized GBM cells to DNA damage induced by Bleomycin”, the “γH2Ax staining, inhibitor with TMZ” value (LN229 GBM cells) was “marked increase in γH2Ax staining” and the Kd (BRG1/BRM) was < 0.1 µM. For the same molecule, the “inhibitory effects against a range of cellular endpoints” value [1] was “inhibitory effects were not observed”, the “enhancement of antiproliferation activity and cell death-inducing effects of TMZ” value [2] was “enhanced the antiproliferation activity and cell death-inducing effects of temozolomide” and the “survival of animals bearing GBM tumors treated with TMZ” value (GBM tumors) was “increase in survival”.

For `COc1ccc(N2C[C@H]3C[C@@H]2CN3C(=O)OC(C)(C)C)cc1` [YH-IV-129, (1R,4R)-tert-butyl 5-(4-methoxyphenyl)-2,5-diazabicyclo[2.2.1]heptane-2-carboxylate], the “enhancement of TMZ-induced cell death” value (MT330 GBM cells; 72 hrs, FIG. 1) was “better efficacy than PFI-3; also recorded: markedly enhanced TMZ sensitivity of GBM cells in vitro”, the “enhancement of bleomycin-induced cell death” value (MT330 GBM cells; bleomycin (0.01 μM) and bromodomain inhibitors (10 μM), 72 hr, FIG. 9) was “sensitized GBM cells to bleomycin-induced cell death” and the “cell death, inhibitor alone” value (MT330 GBM cells; bromodomain inhibitors (10 μM) alone, 72 hr, FIG. 9) was “none of the bromodomain inhibitors (YH-IV-129, YH-IV-255 and YH-IV-275) alone had any death inducing activity”. For the same molecule, the “sensitization to the antiproliferative action of TMZ” value (T98G GBM cells [3]) was “potently sensitized T98G GBM cells to the antiproliferative action of TMZ”, the “thermostability of the BRG1 BRD” value (BRG1 bromodomain; 30 μM, heating 44.5° C. to 55.6° C. for 5 min, immunoblot) was “significantly increased the thermostability” and the “temperature at which the BRG1 BRD protein band is undetectable” value (BRG1 bromodomain; [7]) was 54.20 °C. For the same molecule, the “thermostability of the BRM BRD” value (BRM bromodomain; heating 44.5° C. to 55.6° C. for 5 min, immunoblot) was “significantly increased the thermostability”, the “temperature at which the BRM BRD protein band is undetectable” value (BRM bromodomain; [7]) was 54.20 °C and the “sensitization to cell-death inducing effects of TMZ” value (U87 GBM cells) was “much more potent than PFI-3”. The “sensitization to cell-death inducing effects of TMZ” value (U87 GBM cells; listed as IV-129) was “more potent than PFI-3 as a chemosensitizer to TMZ”, the “sensitization to cell-death inducing effects of TMZ” value (T98G GBM cells [4]; FIG. 4) was “much more potent than PFI-3” and the “sensitization to cell-death inducing effects of TMZ” value (T98G GBM cells [4]; FIG. 4, listed as IV-129) was “more potent than PFI-3 as a chemosensitizer to TMZ”. The “mean survival, combination with TMZ” value ([5]; TMZ (60 mg/Kg) and IV-129 (10 mg/Kg) IP, control mice 27 days after cell injection, FIG. 5C) was 48 days, the “mean survival, either agent alone” value ([5]; TMZ (60 mg/Kg) or IV-129 (10 mg/Kg) alone IP, control mice 27 days, FIG. 5C) was 35 days and the “tumor size by bioluminescence (BLI)” value ([5]; combination with TMZ (60 mg/Kg) and IV-129 (10 mg/Kg) IP 3 times per week for 2 weeks, 20 days after treatment, versus either agent alone) was “much smaller tumors”. For the same molecule, the weight loss ([5]; combination with TMZ, 20 days post-treatment, versus either agent alone, FIG. 5B) was “weight loss was much lower”, the “crossing of the blood-brain barrier” value ([5]; inferred from activity in intracranial GBM xenografts) was “crosses the blood-brain barrier” and the “adverse effects on health, behavior or weight” value [6] was “no adverse effects on the health, behavior or weight of mice”.
